Measurements from paper PMC9942557, “Bolaamphiphile Analogues of 12-bis-THA Cl2 Are Potent Antimicrobial Therapeutics with Distinct Mechanisms of Action against Bacterial, Mycobacterial, and Fungal Pathogens” (mSphere, 2022).
Read-outs that look alike come from different tables or passages of the source.

What was measured:
[1] = tested on: Ac. pleuropneumoniae 2356; assay: Checkerboard synergy assay (BHI, 5% FBS, 0.01% NAD); format: cell-based, Actinobacillus pleuropneumoniae
[2] = tested on: Ac. pleuropneumoniae 3370; assay: as above; format: cell-based, Actinobacillus pleuropneumoniae
[3] = tested on: Ac. pleuropneumoniae Shope; assay: as above; format: cell-based, Actinobacillus pleuropneumoniae
[4] = tested on: Ac. pleuropneumoniae 2331; assay: as above; format: cell-based, Actinobacillus pleuropneumoniae
A. baumannii ATCC 17978 [5] = assay: Fixed-concentration (0.25× MIC bolalipid) synergy broth microdilution; format: cell-based; settings: Acinetobacter baumannii, ATCC17978, A. baumannii ATCC 17978, read-out: MIC of aminoglycoside
E. coli NCTC 12923 = assay: as above; format: cell-based; settings: Escherichia coli, NCTC12923, E. coli NCTC 12923, read-out: MIC of aminoglycoside
P. aeruginosa NCTC 13437 = assay: as above; format: cell-based, Pseudomonas aeruginosa; settings: for MIC: Pseudomonas aeruginosa, NCTC13437, P. aeruginosa NCTC 13437, read-out: MIC of aminoglycoside; for MIC of antibiotic: P. aeruginosa NCTC 13437
A. baumannii AYE = assay: as above; format: cell-based; settings: Acinetobacter baumannii
P. aeruginosa PAO1 = assay: as above; format: cell-based, Pseudomonas aeruginosa; settings: for MIC: Pseudomonas aeruginosa, PAO1, P. aeruginosa PAO1, read-out: MIC of aminoglycoside; for MIC of antibiotic: P. aeruginosa PAO1
K. pneumoniae NCTC 13368 = assay: as above; format: cell-based, Klebsiella pneumoniae; settings: for MIC of aminoglycoside: K. pneumoniae NCTC 13368; for MIC: Klebsiella pneumoniae
A. baumannii ATCC 17978 [6] = assay: G. mellonella burn wound infection model; format: in vivo, Galleria mellonella; settings: alone
Source text: In addition to the intrahemocoelic infection/therapy models described above, a recently described G. mellonella burn wound model was adopted ([37]). The burn was created using the flat head of a nail, which was heated in a blue Bunsen burner flame until red hot, cooled for 15 s, and superficially applied for 2 s to generate a 2-mm^2 burn. Larvae were then infected with a single colony of A. baumannii ATCC 17978 applied directly to the burn site, or sterile phosphate-buffered saline was applied as a control. Treatment was applied topically 1 h after infection in a volume of 5 μL. Survival was monitored over 96 h.

K. pneumoniae M6 = assay: Fixed-concentration (0.25× MIC bolalipid) synergy broth microdilution; format: cell-based; settings: Klebsiella pneumoniae
[7] = tested on: Pseudomonas aeruginosa RP73; assay: In vitro pharmacodynamic (PD) assay; settings: P. aeruginosa RP73; combination 2:1 (wt/wt)
Description: In vitro PD assays were performed with Pseudomonas aeruginosa RP73 cultured in Roswell Park Memorial Institute 1640 medium (RPMI) supplemented with 5% Mueller-Hinton broth (MHB) ([35]). Bacteria were cultured overnight in 10 mL of RPMI–5% MHB at 37°C and diluted just prior to plate inoculation to an OD600 of 0.002. Stock solutions of colistin or tobramycin were prepared in sterile MilliQ water at a concentration of 200× MIC. Octa-bola was prepared in methanol at 2,000× MIC and diluted in water to 200× MIC. A dilution series was made in the top row of a polypropylene 96-well plate from 200× MIC to 0.2× MIC in a volume of 100 μL, to which 100 μL of the bacterial suspension was added to have a total of 1 × 10^6 log-phase CFU in 200 μL. The first time zero sample was taken <30 s after addition of bacteria to the plate, with further samples taken at appropriate intervals thereafter. […] Fifteen microliters was removed from each well, diluted 1:1,000 in phosphate-buffered saline, and plated onto RPMI–5% MH agar plates. The plates were incubated at 37°C overnight for CFU counting.
CFU data were log10 transformed, and the bacterial net growth rate was determined from the increase or decrease in CFU during the time of exposure to the antibiotics as the coefficient of a linear regression of log10 CFU as a function of time. The intercept of the regression was fixed by forcing the regression lines through the first CFU measurement (0 min) at a given antimicrobial concentration. The pharmacodynamic function according to Regoes et al. ([36]) describes the relationship between bacterial net growth rate (ψ) and the concentration of an antimicrobial (a): ψmax − ([ψmax − ψmin][a/zMIC])^κ/([a/zMIC]^κ − [ψmin/ψmax]). Fitting this function to the net bacterial growth rates in OriginPro 2020 (OriginLab Corporation, Northampton, MA) generates the parameters ψmin and ψmax (minimum and maximum growth rates, respectively), zMIC (the pharmacodynamic MIC), and κ (a measure of the cooperativity). […]

EMRSA-15 = format: in vivo, Galleria mellonella
[8] = in the presence of 0.25× MIC Octa-Bola
[9] = in the presence of 0.25× MIC Octa-C6
[10] = in the presence of 0.25× MIC Octa-C10
[11] = No bola, read-out: MIC of aminoglycoside
[12] = in the presence of 0.25× MIC Octa-Bola, read-out: MIC of aminoglycoside
[13] = in the presence of 0.25× MIC Octa-C6, read-out: MIC of aminoglycoside
[14] = in the presence of 0.25× MIC Octa-C10, read-out: MIC of aminoglycoside
[15] = in the presence of 0.25× MIC Octa-C10 (Table S1)
[16] = in the presence of 0.25× MIC Octa-bola (Table S1)

In the case of `[H]/N=C(/N)N[C@H]1[C@H](O)[C@@H](O)[C@H](O[C@@H]2O[C@@H](C)[C@](O)(C=O)[C@H]2O[C@@H]2O[C@@H](CO)[C@H](O)[C@@H](O)[C@@H]2NC)[C@@H](N/C(N)=N\[H])[C@@H]1O` [streptomycin, reference compound], the “MIC alone Antibiotic” value ([1]; Octa-C10/streptomycin) is reported as 64 µg/mL, the “MIC alone Antibiotic” value ([2]; Octa-C10/streptomycin) is reported as 16 to 64 µg/mL and the “MIC alone Antibiotic” value ([3]; Octa-C10/streptomycin) is reported as 32 to 64 µg/mL. The “MIC alone Antibiotic” value ([4]; Octa-C10/streptomycin) was 32 µg/mL.
`CNC(C)C1CCC(N)C(OC2C(N)CC(N)C(OC3OCC(C)(O)C(NC)C3O)C2O)O1` (centres unmarked) [Gentamicin] gave an MIC (A. baumannii ATCC 17978 [5]; No bola) of 2 µg/mL, an MIC (A. baumannii ATCC 17978 [5]; [8]) of 0.25 µg/mL and an MIC (A. baumannii ATCC 17978 [5]; [9]) of 1 µg/mL. It also gave an MIC (A. baumannii ATCC 17978 [5]; [10]) of 1 µg/mL, an MIC (E. coli NCTC 12923; No bola) of 2 µg/mL and an MIC (E. coli NCTC 12923; [8]) of 2 µg/mL. It also gave an MIC (E. coli NCTC 12923; [9]) of 2 µg/mL, an MIC (E. coli NCTC 12923; [10]) of 1 µg/mL and an MIC (P. aeruginosa NCTC 13437; No bola) of 256 µg/mL. For the same molecule, the MIC (P. aeruginosa NCTC 13437; [8]) was 8 µg/mL, the MIC (P. aeruginosa NCTC 13437; [9]) was 8 µg/mL and the MIC (P. aeruginosa NCTC 13437; [10]) was 8 µg/mL. The MIC (A. baumannii AYE; [11]) was 256 µg/mL, the MIC (A. baumannii AYE; [12]) was 0.5 µg/mL and the MIC (A. baumannii AYE; [13]) was 32 µg/mL. The MIC (A. baumannii AYE; [14]) was 4 µg/mL, the MIC (P. aeruginosa PAO1; No bola) was 2 µg/mL and the MIC (P. aeruginosa PAO1; [8]) was 0.5 µg/mL. It also gave an MIC (P. aeruginosa PAO1; [9]) of 0.25 µg/mL, an MIC (P. aeruginosa PAO1; [10]) of 0.25 µg/mL and an MIC of aminoglycoside (K. pneumoniae NCTC 13368; [9]) of 16 µg/mL. The MIC of aminoglycoside (K. pneumoniae NCTC 13368; [10]) was 16 µg/mL, the MIC (K. pneumoniae NCTC 13368; NCTC13368, K. pneumoniae NCTC 13368, in the presence of 0.25× MIC Octa-Bola, read-out: MIC of aminoglycoside) was 8 µg/mL and the MIC (K. pneumoniae NCTC 13368; NCTC13368, read-out: MIC of aminoglycoside) was 16 µg/mL. The larvae rescued (A. baumannii ATCC 17978 [6]; 5 mg/kg topical, 96 h) was 76%, the protection (A. baumannii ATCC 17978 [6]; lower doses (2.5 and 1.25 mg/kg)) was “ineffective” and the MIC (K. pneumoniae M6; [11]) was 1 µg/mL. It also gave an MIC (K. pneumoniae M6; [12]) of 1 µg/mL, an MIC (K. pneumoniae M6; [13]) of 1 µg/mL and an MIC (K. pneumoniae M6; [14]) of 1 µg/mL.
With `CCN1CCN(c2cc3c(cc2F)c(=O)c(C(=O)O)cn3C2CC2)CC1` [enrofloxacin, reference compound] the “MIC alone Antibiotic” value ([1]; Octa-C10/enrofloxacin) was 0.125 µg/mL, the “MIC alone Antibiotic” value ([2]; Octa-C10/enrofloxacin) was 0.125 µg/mL and the “MIC alone Antibiotic” value ([3]; Octa-C10/enrofloxacin) was 0.125 µg/mL. For the same molecule, the “MIC alone Antibiotic” value ([4]; Octa-C10/enrofloxacin) was 0.125 µg/mL.
Molecule Colistin has an MIC of antibiotic (P. aeruginosa NCTC 13437; No bola (Table S1)) of 0.25 to 0.5 µg/mL, an MIC of antibiotic (P. aeruginosa NCTC 13437; [15]) of 0.125 to 0.25 µg/mL and an MIC of antibiotic (P. aeruginosa NCTC 13437; [16]) of 0.125 µg/mL. The “bactericidal activity (minimum growth rate, ψmin)” value [7] was “weakly bactericidal”, the MIC of antibiotic (P. aeruginosa PAO1; No bola (Table S1)) was 0.125 to 0.25 µg/mL and the MIC of antibiotic (P. aeruginosa PAO1; [15]) was 0.06 µg/mL. The MIC of antibiotic (P. aeruginosa PAO1; [16]) was 0.06 µg/mL.
In the case of `CN[C@H](CC(C)C)C(=O)N[C@H]1C(=O)N[C@@H](CC(N)=O)C(=O)N[C@H]2C(=O)N[C@H]3C(=O)N[C@H](C(=O)N[C@H](C(=O)O)c4cc(O)cc(O)c4-c4cc3ccc4O)[C@H](O)c3ccc(c(Cl)c3)Oc3cc2cc(c3O[C@@H]2O[C@H](CO)[C@@H](O)[C@H](O)[C@H]2O[C@H]2C[C@](C)(N)[C@H](O)[C@H](C)O2)Oc2ccc(cc2Cl)[C@H]1O` [Vancomycin, reference compound], the infected larvae rescued (EMRSA-15; 50 mg/kg, single injection 2 h postinfection) is reported as about 80% and the infected larvae rescued (EMRSA-15; a tenth of 50 mg/kg dose) is reported as 45%.
